Here are results for eleven compounds from ChEMBL document CHEMBL2417377, “Hit-to-lead optimization and kinase selectivity of imidazo[1,2-a]quinoxalin-4-amine derived JNK1 inhibitors” (Bioorg Med Chem Lett, 2013).

The structures appear in SMILES notation.

By inhibition is commonly meant how much of the control response was suppressed.

Experiment [1] concerns the target Serine/threonine-protein kinase PRP4 homolog (Homo sapiens) (UniProt Q13523). The experiment can be described thus: Inhibition of PRP4 in human PC3 cell lysates at 10 uM using desthiobiotin-tagged ATP probe AX9989 followed by trypsinization by LC/MS analysis. The following applies: PC-3.
Experiment [2] has as its target T1, Ephrin type-B receptor 2 (Homo sapiens) (UniProt P29323).
T1 sequence (whole entry): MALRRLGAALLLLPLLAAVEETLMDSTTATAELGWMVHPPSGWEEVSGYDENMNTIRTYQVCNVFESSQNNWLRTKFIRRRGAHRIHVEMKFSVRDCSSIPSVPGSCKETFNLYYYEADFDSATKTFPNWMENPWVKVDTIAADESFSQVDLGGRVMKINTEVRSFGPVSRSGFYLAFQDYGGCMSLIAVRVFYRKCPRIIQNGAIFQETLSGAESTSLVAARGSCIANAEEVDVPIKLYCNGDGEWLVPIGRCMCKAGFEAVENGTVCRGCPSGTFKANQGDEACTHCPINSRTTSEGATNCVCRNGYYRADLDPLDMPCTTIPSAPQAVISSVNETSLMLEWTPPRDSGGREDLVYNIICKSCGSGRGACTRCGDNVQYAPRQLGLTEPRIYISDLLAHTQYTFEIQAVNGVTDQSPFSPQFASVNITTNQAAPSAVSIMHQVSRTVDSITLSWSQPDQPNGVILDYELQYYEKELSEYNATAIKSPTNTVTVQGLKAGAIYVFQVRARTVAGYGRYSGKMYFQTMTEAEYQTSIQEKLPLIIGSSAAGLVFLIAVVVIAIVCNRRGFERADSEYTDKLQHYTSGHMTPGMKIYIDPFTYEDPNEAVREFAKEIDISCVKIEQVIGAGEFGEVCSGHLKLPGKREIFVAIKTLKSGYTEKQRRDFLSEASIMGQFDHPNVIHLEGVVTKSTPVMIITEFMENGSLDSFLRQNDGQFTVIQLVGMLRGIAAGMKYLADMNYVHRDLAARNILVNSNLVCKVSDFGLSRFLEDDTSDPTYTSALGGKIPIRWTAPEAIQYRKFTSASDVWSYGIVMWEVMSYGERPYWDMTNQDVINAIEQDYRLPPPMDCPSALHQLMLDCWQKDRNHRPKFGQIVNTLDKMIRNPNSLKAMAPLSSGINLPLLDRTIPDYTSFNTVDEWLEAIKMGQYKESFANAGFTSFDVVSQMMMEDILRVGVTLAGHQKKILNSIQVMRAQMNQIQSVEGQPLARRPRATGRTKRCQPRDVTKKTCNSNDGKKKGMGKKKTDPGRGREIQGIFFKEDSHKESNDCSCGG
Nature of the experiment: Inhibition of EphB2 in human PC3 cell lysates at 10 uM using desthiobiotin-tagged ATP probe AX9989 followed by trypsinization by LC/MS analysis. The following applies: PC-3.

In a further experiment the test system is PC-3. Nature of the experiment: Inhibition of KHS1 in human PC3 cell lysates at 10 uM using desthiobiotin-tagged ATP probe AX9989 followed by trypsinization by LC/MS analysis. The experiment is classed as cell-free.
For experiment [3], the target named is 3-phosphoinositide-dependent protein kinase 1 (Homo sapiens) (UniProt O15530). The experiment can be described thus: Inhibition of PDK1 in human PC3 cell lysates at 10 uM using desthiobiotin-tagged ATP probe AX9989 followed by trypsinization by LC/MS analysis. The following applies: PC-3.
Experiment [4] deals with Serine/threonine-protein kinase 25 (Homo sapiens) (UniProt O00506). Nature of the experiment: Inhibition of YSK1 in human PC3 cell lysates at 10 uM using desthiobiotin-tagged ATP probe AX9989 followed by trypsinization by LC/MS analysis. The following applies: PC-3.
Experiment [5] concerns the target Casein kinase I delta/epsilon (Homo sapiens) (UniProt P48730+P49674). Nature of the experiment: Inhibition of CK1delta/CK1epsilon in human PC3 cell lysates at 10 uM using desthiobiotin-tagged ATP probe AX9989 followed by trypsinization by LC/MS analysis. Format: protein-complex assay. The following applies: PC-3.
Experiment [6] has as its target Mitogen-activated protein kinase kinase kinase 11 (Homo sapiens) (UniProt Q16584). The experiment can be described thus: Inhibition of MLK3 in human PC3 cell lysates at 10 uM using desthiobiotin-tagged ATP probe AX9989 followed by trypsinization by LC/MS analysis. The following applies: PC-3.
The target in experiment [7] is T2, Serine/threonine-protein kinase Nek8 (Homo sapiens) (UniProt Q86SG6).
T2 sequence (whole entry): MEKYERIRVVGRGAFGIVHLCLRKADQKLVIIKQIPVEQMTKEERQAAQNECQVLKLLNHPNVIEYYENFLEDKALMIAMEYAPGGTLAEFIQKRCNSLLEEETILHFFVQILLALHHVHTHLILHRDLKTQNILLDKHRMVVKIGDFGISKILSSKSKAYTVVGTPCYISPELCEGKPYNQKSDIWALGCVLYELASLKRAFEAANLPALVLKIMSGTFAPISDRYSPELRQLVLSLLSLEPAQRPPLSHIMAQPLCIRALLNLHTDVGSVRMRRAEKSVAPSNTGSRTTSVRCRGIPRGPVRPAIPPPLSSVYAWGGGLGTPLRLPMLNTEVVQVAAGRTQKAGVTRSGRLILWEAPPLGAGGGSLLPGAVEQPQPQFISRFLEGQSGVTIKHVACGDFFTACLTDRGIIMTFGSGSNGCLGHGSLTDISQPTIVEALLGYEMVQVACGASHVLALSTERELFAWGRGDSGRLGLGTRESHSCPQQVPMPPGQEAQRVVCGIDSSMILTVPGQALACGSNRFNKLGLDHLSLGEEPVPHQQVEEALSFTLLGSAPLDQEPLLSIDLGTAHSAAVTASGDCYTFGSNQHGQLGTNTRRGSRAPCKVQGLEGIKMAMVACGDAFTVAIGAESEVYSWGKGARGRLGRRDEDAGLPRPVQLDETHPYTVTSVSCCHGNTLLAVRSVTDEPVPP
The experiment can be described thus: Inhibition of NEK8 in human PC3 cell lysates at 10 uM using desthiobiotin-tagged ATP probe AX9989 followed by trypsinization by LC/MS analysis. The following applies: PC-3.

The target in experiment [8] is T3, Dual specificity mitogen-activated protein kinase kinase 6 (Homo sapiens) (UniProt P52564).
T3 sequence (whole entry): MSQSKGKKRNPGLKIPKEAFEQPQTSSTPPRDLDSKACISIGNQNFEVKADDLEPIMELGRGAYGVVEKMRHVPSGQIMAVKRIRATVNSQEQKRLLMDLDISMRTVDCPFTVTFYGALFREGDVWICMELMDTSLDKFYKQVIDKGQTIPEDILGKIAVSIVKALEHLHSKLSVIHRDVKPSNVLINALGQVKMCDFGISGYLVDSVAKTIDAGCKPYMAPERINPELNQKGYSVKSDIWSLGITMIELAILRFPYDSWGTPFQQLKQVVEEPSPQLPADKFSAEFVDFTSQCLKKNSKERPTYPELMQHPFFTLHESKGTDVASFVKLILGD
The experiment can be described thus: Inhibition of MAP2K6 in human PC3 cell lysates at 10 uM using desthiobiotin-tagged ATP probe AX9989 followed by trypsinization by LC/MS analysis. The following applies: PC-3.

For experiment [9], the target named is p38 delta/gamma (Homo sapiens) (UniProt O15264+P53778). The experiment can be described thus: Inhibition of p38delta/gamma in human PC3 cell lysates at 10 uM using desthiobiotin-tagged ATP probe AX9989 followed by trypsinization by LC/MS analysis. The experiment is classed as protein assay. The following applies: PC-3.

Chain of 3-phosphoinositide-dependent protein kinase 1 (Homo sapiens) (O15530 whole entry, looked up): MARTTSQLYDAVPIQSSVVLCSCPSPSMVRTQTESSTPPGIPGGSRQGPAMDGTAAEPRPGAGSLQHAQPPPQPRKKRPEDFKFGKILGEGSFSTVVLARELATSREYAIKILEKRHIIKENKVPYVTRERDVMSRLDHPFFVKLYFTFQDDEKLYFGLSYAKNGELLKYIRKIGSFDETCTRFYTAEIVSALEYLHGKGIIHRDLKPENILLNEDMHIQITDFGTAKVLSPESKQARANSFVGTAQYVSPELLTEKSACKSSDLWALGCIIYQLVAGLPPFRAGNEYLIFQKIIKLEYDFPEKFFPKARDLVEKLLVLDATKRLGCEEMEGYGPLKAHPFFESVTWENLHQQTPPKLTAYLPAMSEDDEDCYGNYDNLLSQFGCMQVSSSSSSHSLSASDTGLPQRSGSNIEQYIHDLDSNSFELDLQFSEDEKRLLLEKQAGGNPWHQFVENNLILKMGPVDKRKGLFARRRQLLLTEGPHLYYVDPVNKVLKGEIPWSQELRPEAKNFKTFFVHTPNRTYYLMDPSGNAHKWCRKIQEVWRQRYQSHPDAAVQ
Chain of Mitogen-activated protein kinase kinase kinase 11 (Homo sapiens) (Q16584 whole entry, looked up): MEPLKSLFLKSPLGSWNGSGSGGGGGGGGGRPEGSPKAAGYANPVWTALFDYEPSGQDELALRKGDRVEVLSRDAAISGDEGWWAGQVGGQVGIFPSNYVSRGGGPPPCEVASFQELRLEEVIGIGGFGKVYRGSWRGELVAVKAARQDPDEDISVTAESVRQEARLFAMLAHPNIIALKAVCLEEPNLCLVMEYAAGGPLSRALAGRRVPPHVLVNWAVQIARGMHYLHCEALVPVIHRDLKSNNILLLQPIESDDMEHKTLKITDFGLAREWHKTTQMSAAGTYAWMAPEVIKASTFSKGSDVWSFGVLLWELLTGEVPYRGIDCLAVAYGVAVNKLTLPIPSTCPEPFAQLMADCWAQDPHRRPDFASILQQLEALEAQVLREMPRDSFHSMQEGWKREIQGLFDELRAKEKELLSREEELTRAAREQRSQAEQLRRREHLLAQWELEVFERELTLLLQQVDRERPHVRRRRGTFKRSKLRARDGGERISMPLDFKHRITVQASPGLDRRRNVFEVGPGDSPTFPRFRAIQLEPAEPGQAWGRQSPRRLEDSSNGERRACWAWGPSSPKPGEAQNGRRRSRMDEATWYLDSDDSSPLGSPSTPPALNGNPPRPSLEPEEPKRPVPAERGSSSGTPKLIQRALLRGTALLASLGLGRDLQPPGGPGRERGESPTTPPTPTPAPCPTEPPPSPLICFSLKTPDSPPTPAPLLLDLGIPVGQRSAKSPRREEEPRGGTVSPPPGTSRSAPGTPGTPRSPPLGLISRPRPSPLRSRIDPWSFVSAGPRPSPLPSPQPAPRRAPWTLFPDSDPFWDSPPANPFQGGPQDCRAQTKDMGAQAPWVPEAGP
Chain of Serine/threonine-protein kinase 25 (Homo sapiens) (O00506 whole entry, looked up): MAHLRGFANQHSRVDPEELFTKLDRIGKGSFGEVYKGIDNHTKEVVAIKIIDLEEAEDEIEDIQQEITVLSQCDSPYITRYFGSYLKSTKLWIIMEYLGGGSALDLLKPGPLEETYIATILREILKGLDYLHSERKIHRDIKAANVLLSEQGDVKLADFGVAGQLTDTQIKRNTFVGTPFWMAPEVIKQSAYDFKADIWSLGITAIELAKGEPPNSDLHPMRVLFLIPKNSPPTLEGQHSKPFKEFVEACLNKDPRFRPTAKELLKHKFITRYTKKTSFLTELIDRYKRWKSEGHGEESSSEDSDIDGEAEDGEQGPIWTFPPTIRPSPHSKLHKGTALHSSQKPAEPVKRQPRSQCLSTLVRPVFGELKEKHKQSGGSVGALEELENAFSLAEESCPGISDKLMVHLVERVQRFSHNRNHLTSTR
Chain of Casein kinase I delta/epsilon (Homo sapiens) (P48730 whole entry, looked up): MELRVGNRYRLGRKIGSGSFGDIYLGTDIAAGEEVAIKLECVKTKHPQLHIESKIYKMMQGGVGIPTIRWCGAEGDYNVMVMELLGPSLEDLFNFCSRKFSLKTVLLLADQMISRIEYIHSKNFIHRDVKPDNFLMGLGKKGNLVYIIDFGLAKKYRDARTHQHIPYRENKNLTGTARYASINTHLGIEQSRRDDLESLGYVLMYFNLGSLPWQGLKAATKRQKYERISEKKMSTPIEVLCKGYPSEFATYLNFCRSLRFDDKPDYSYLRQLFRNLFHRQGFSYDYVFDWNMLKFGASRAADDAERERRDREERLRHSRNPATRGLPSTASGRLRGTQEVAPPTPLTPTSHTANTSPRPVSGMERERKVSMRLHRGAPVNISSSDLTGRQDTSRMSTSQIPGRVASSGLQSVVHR
Chain of Casein kinase I delta/epsilon (Homo sapiens) (P49674 whole entry, looked up): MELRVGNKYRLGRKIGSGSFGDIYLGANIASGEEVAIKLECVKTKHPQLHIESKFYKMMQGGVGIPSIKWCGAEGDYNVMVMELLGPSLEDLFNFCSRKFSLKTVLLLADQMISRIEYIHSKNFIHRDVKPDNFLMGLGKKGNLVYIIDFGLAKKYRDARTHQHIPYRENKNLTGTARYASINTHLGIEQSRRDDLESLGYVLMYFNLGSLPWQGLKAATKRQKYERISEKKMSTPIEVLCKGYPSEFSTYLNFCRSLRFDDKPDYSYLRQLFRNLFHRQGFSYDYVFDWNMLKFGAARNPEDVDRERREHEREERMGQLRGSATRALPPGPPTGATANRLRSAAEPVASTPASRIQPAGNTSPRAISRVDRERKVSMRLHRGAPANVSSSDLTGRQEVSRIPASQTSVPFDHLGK
Chain of Serine/threonine-protein kinase PRP4 homolog (Homo sapiens) (Q13523 whole entry): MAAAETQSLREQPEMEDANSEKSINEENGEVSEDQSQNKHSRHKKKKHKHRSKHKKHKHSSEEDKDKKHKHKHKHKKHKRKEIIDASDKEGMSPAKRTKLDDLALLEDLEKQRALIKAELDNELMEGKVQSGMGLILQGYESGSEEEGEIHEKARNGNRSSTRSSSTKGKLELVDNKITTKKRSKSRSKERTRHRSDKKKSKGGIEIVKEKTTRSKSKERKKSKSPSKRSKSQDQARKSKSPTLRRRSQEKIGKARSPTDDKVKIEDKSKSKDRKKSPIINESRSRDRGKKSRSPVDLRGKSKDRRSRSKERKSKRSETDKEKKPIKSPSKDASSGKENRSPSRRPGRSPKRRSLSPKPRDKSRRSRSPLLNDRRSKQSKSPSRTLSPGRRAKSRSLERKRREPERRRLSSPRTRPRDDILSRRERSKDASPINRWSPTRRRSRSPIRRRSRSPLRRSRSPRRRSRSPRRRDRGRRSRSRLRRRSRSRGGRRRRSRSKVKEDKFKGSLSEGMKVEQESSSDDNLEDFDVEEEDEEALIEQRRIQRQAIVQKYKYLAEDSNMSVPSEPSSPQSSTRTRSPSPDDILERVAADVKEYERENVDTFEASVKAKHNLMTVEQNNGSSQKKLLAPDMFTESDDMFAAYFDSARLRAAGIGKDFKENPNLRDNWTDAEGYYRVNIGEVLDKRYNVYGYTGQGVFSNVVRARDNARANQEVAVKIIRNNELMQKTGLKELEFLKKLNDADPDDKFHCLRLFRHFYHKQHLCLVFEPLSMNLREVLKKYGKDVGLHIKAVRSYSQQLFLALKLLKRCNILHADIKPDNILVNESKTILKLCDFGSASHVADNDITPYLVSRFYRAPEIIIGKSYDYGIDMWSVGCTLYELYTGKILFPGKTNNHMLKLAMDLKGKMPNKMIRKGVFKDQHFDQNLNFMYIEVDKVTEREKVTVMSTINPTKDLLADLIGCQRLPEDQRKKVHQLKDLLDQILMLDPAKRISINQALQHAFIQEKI

Turning to `CC[C@@H](NC(=O)c1ccc2nc(N[C@H]3CC[C@H](O)CC3)c3nccn3c2c1)c1ccccc1`, the inhibition (in experiment [1]; in experiment [2]; with PC-3; in experiment [3]; in experiment [4]; in experiment [5]) was below 35% in each case. Further, the inhibition in experiment [6], in experiment [7], in [8] and in [9] was below 35% each time.
On to `O=C(N[C@H](CO)c1ccccc1)c1ccc2nc(N[C@H]3CC[C@H](O)CC3)c3nccn3c2c1`, for which the inhibition (in [1]; in experiment [2]; in the experiment on PC-3; in experiment [3]; in experiment [4]; in experiment [5]) was below 35% in each case. Further, the inhibition in experiment [6], in [7], in [8] and in experiment [9] was below 35% throughout.
Regarding `O=C(NC1(c2ccccc2)CCC1)c1ccc2nc(N[C@H]3CC[C@H](O)CC3)c3nccn3c2c1`, the inhibition (in experiment [1]; in experiment [2]; with PC-3; in [3]; in experiment [4]; in experiment [5]) was below 35% in each case. For the same compound, the inhibition in experiment [6], in [7], in experiment [8] and in experiment [9] was below 35% in each case.
On to `CCC[C@@H](NC(=O)c1ccc2nc(N[C@H]3CC[C@H](O)CC3)c3nccn3c2c1)c1ccccc1`, for which the inhibition (in experiment [1]; in experiment [2]; in the experiment on PC-3; in experiment [3]; in experiment [4]; in experiment [5]) was below 35% in each case. In addition, the inhibition in [6], in experiment [7], in experiment [8] and in experiment [9] was below 35% throughout.
Consider `CC(C)(NC(=O)c1ccc2nc(N[C@H]3CC[C@H](O)CC3)c3nccn3c2c1)c1ccccc1`, for which the inhibition (in experiment [1]; in experiment [2]; with PC-3; in experiment [3]; in experiment [4]; in experiment [5]) was below 35% in each case. The inhibition in experiment [6], in experiment [7], in [8] and in experiment [9] was below 35% throughout.
On to `O=C(O)c1ccc2nc(N[C@H]3CC[C@H](O)CC3)c3nccn3c2c1`, for which the inhibition is below 35% in [1]; below 35% in experiment [2]; below 35% with PC-3; below 35% in [3]; below 35% in [4]; 81.2% in experiment [5]. Moreover, the inhibition is below 35% in experiment [6], below 35% in [7], below 35% in experiment [8] and 57.7% in experiment [9].
Consider `O=C(NC1(c2ccccc2)CC1)c1ccc2nc(N[C@H]3CC[C@H](O)CC3)c3nccn3c2c1`, for which the inhibition (in experiment [1]; in [2]; with PC-3; in [3]; in experiment [4]; in experiment [5]) was below 35% throughout. For the same compound, the inhibition in experiment [6], in experiment [7], in [8] and in experiment [9] was below 35% in each case.
Take `NC(=O)c1ccc2nc(N[C@H]3CC[C@H](O)CC3)c3nccn3c2c1`: the inhibition is below 35% in experiment [1]; below 35% in experiment [2]; below 35% in the experiment on PC-3; below 35% in [3]; below 35% in experiment [4]; 91.3% in experiment [5]. For the same compound, the inhibition in experiment [6] is below 35%; in experiment [7], below 35%; in [8], below 35%; in [9], 44.4%.
For `C[C@@H](NC(=O)c1ccc2nc(N[C@H]3CC[C@H](O)CC3)c3nccn3c2c1)c1ccccc1`, the inhibition in experiment [1] was below 35%; in experiment [2], below 35%; with PC-3, below 35%; in experiment [3], below 35%; in [4] it was below 35%; in [5], 42.6%. For the same compound, the inhibition in experiment [6], in [7], in experiment [8] and in [9] was below 35% in each case.
For `C[C@H](NC(=O)c1ccc2nc(N[C@H]3CC[C@H](O)CC3)c3nccn3c2c1)c1ccccc1`, the inhibition (in experiment [1]; in experiment [2]; in the experiment on PC-3; in experiment [3]; in [4]; in experiment [5]) was below 35% each time. For the same compound, the inhibition in [6], in experiment [7], in [8] and in [9] was below 35% throughout.
With `O=C(NC1(c2ccc(F)cc2)CC1)c1ccc2nc(N[C@H]3CC[C@H](O)CC3)c3nccn3c2c1`, the inhibition in experiment [1] is below 35%; in [2], below 35%; with PC-3 it was below 35%; in experiment [3], below 35%; in experiment [4], below 35%; in experiment [5], 44.3%. The inhibition in experiment [6], in [7], in [8] and in [9] was below 35% in each case.
